Source: PMC5446409 (Scientific Reports, 2017)

Tests used:
hERG (hKv11.1) = biological target: T1, hERG (hKv11.1) (Homo sapiens, UniProt Q12809); assay: automated patch clamp of I Kr in hERG-HEK293 cells; independently verified in hERG-CHO ([…] at […]); format: cell-based
T1 construct: gene KCNH2; human KCNH2 stably expressed in HEK293 cells

[1] = biological target: T2, hCav1.2 (L-type calcium channel, LTCC) (Homo sapiens, UniProt Q13936); assay: automated patch clamp of I Ca,L in Cav1.2-CHO cells; confirmed by conventional patch clamp with Ba2+ as charge carrier; format: cell-based
T2 construct: gene CACNA1C; hCav1.2/β2/α2δ1 channel stably expressed in CHO cells; with CACNB2 (β2) and CACNA2D1 (α2δ1) subunits
T2 sequence (Q13936 whole entry): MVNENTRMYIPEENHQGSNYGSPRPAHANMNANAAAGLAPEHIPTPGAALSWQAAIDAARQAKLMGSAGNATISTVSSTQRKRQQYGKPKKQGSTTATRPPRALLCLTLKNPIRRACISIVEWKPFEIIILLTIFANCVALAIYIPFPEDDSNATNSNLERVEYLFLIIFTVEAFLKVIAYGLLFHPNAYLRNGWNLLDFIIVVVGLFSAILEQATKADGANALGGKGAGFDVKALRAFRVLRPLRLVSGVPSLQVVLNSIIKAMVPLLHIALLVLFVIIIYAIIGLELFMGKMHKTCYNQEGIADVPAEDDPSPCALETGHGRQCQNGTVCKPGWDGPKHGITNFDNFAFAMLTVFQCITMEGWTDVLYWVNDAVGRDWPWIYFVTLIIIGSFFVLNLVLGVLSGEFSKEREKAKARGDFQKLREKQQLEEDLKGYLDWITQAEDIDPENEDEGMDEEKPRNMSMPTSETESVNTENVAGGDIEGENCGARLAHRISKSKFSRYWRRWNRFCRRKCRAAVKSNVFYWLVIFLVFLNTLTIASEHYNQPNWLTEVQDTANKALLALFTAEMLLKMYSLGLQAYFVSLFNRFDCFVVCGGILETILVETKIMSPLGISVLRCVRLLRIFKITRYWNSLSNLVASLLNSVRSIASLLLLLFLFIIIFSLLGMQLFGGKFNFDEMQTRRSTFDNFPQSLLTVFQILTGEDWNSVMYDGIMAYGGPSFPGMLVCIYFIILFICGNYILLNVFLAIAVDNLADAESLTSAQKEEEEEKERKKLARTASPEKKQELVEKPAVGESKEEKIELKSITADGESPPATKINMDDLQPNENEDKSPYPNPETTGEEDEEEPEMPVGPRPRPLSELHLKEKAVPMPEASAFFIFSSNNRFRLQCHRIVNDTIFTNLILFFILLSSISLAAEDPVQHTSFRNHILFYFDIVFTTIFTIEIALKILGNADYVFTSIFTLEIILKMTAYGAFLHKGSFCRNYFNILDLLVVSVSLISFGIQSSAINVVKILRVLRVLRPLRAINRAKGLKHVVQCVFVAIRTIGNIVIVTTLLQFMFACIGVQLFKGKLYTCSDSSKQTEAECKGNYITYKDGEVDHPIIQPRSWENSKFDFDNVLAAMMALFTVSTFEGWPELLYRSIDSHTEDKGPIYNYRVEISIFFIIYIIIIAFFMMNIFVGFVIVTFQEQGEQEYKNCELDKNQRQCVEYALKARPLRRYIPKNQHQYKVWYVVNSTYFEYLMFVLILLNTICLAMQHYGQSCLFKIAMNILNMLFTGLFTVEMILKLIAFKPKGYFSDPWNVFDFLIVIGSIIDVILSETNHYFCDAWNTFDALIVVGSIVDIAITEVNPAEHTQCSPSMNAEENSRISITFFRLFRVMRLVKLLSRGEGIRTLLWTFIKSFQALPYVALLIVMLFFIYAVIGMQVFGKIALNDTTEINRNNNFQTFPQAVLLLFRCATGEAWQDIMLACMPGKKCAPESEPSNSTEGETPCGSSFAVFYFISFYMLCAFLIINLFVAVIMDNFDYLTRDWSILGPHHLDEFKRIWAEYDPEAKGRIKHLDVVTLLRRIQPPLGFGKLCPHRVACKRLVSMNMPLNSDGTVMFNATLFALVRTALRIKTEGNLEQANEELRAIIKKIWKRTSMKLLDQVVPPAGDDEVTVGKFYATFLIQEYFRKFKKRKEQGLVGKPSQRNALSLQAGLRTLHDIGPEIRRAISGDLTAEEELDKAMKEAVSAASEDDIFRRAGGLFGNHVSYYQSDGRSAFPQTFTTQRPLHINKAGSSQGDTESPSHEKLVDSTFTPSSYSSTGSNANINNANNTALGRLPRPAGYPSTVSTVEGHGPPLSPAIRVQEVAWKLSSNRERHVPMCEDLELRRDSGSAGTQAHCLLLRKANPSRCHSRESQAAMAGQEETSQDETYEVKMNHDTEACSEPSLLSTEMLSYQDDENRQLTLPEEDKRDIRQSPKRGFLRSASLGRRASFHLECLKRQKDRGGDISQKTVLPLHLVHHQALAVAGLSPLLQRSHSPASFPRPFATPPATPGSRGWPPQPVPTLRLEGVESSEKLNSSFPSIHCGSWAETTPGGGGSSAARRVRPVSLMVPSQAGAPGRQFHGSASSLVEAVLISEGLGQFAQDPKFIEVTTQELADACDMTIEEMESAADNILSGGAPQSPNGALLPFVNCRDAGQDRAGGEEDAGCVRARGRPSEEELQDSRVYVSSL
T2 sequence (Q08289 whole entry partner): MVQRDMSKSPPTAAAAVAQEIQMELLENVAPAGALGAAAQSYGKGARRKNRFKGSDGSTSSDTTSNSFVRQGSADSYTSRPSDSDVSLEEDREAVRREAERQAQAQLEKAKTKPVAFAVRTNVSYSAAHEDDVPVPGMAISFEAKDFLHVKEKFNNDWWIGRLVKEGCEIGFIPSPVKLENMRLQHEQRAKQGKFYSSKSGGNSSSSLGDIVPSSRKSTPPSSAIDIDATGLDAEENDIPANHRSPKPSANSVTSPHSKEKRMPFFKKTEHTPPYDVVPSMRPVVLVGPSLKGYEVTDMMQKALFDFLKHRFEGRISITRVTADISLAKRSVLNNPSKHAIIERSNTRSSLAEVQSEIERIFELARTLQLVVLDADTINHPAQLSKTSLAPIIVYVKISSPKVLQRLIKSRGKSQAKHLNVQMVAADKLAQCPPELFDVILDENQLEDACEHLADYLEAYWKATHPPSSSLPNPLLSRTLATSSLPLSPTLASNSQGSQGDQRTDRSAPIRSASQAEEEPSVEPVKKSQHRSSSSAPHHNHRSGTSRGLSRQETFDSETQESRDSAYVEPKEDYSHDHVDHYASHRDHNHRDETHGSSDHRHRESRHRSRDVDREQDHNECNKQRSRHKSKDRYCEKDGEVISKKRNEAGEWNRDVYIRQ
T2 sequence (P54289 25-956 partner): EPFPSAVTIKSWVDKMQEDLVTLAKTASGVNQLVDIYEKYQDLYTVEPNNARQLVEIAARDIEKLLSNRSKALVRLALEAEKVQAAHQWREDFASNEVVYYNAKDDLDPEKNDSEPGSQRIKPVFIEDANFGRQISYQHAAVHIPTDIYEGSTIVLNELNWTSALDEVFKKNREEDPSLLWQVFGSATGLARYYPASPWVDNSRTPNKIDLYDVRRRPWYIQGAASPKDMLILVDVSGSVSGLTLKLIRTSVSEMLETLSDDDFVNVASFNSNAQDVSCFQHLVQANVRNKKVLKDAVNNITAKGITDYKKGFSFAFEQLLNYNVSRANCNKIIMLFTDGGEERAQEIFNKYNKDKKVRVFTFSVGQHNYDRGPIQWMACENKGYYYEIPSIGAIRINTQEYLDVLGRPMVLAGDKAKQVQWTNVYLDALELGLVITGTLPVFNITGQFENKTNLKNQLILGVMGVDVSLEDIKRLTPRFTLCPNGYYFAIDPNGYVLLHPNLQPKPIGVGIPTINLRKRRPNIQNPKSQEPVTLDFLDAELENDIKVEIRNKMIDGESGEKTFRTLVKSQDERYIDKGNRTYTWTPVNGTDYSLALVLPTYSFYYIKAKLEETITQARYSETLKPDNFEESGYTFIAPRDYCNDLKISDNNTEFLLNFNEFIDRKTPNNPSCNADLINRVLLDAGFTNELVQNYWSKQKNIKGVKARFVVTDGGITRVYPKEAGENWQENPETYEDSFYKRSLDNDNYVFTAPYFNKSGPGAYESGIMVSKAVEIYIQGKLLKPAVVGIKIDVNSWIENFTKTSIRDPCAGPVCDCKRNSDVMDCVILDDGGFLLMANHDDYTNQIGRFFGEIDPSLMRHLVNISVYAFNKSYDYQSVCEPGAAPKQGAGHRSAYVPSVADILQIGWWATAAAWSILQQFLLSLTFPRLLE
T2 sequence (P54289 957-1103 partner): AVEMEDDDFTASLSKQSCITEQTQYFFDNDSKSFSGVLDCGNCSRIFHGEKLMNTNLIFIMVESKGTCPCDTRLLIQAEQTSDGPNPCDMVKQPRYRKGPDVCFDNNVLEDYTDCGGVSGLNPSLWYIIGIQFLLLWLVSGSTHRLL

T1 sequence (Q12809 whole entry): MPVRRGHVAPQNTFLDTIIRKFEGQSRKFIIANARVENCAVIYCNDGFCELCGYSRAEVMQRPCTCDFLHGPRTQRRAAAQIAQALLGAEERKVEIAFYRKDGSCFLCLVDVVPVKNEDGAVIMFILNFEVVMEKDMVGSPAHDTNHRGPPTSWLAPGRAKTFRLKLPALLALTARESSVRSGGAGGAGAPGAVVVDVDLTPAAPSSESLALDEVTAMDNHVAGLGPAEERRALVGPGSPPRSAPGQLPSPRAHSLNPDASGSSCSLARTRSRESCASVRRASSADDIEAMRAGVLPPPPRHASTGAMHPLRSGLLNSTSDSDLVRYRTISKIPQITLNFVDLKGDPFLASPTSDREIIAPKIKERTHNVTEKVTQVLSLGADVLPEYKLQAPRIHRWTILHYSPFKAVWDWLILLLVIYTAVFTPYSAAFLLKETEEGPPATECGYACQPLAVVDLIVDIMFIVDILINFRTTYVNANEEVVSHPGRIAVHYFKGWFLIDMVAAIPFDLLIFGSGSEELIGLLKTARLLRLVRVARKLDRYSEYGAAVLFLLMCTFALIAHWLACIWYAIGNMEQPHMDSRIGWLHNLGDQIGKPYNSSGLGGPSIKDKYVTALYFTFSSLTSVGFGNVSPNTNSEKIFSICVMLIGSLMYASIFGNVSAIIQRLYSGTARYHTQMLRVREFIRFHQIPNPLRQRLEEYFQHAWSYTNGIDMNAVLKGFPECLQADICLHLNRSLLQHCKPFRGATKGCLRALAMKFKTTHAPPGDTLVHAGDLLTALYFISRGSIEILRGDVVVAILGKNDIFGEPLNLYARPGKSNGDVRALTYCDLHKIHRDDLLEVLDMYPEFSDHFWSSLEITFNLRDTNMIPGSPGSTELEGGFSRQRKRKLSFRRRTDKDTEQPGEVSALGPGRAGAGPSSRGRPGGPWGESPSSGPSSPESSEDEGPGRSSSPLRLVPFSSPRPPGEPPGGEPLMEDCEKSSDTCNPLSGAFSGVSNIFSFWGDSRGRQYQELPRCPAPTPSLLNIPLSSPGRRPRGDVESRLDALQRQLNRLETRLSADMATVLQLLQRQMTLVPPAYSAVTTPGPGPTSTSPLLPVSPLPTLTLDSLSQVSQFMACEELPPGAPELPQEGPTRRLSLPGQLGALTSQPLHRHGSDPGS

C[C@]12CC[C@H](O)C[C@H]1CC[C@@H]1[C@@H]2CC[C@]2(C)[C@@H](c3ccc(=O)oc3)CC[C@]12O [BF, bufalin]
IC50 (hERG (hKv11.1)): > 100 µM | IC50 [1]: 12.5 µM
